These results are taken from ChEMBL document CHEMBL5696440, “Inhibition of BET recruitment to chromatin as an effective treatment for MLL-fusion leukaemia” (Nature, 2011).

The term Cmax denotes the maximum level reached in the sampled fluid or tissue. As usually defined, the AUC is concentration integrated over time. Read a high AUC as more exposure. For orientation: half-life means how long it takes for the measured level to halve. High values mean slow loss, low ones fast loss. The IC50 is the concentration that gives 50% inhibition.

The nature of data set [1]: Cmax in NOD:SCID mouse at 30 mg/kg, ip administered for 24 hrs by LC-MS/MS analysis. In kind it is ADME, organism-based. Particulars: in vivo.
Data set [2] can be described thus: AUC (0 to infinity) in NOD:SCID mouse at 30 mg/kg, ip administered for 24 hrs by LC-MS/MS analysis. The format is ADME, organism-based. Particulars: in vivo.
Data set [3] in a line: Half life in NOD:SCID mouse at 30 mg/kg, ip administered for 24 hrs by LC-MS/MS analysis. In kind it is ADME, organism-based. Particulars: in vivo.
The subject of another data set is NOMO-1. Nature of the data set: Antiproliferative activity against human NOMO-1 cells harboring MLL-AF9 assessed as inhibition of cell growth incubated for […] by CellTiter-Aqueous One assay. The format is functional, cell-based. Particulars: NOMO-1, 4 h.
The test system of another data set is K562. The data set can be described thus: cells. Particulars: Homo sapiens, K562, 4 h.
The target of data set [4] is Prostaglandin G/H synthase 2 (Homo sapiens, UniProt P35354). The data set can be described thus: Inhibition of human COX-2 by FLINT assay.
The target in data set [5] is 3',5'-cyclic-AMP phosphodiesterase 4B (Homo sapiens, UniProt Q07343). The data set can be described thus: Inhibition of human PDE4B by luminescence assay.
Data set [6] addresses 5-hydroxytryptamine receptor 1B (Homo sapiens, UniProt P28222). Nature of the data set: Inhibition of human 5-HT1B in presence of GTPgS.
For data set [7], the target named is 5-hydroxytryptamine receptor 2A (Homo sapiens, UniProt P28223). Nature of the data set: Inhibition of human 5-HT2A by intracellular Ca2+ luminescence assay. The format is functional, cell-based.
Data set [8] has as its target 5-hydroxytryptamine receptor 2C (Homo sapiens, UniProt P28335). Nature of the data set: Inhibition of human 5-HT2C by intracellular Ca2+ luminescence assay. In kind it is functional, cell-based.
Data set [9] concerns the target Alpha-1B adrenergic receptor (Homo sapiens, UniProt P35368). Nature of the data set: Inhibition of human adrenergic alpha 1B by intracellular Ca2+ fluorescence assay. In kind it is functional, cell-based.
Data set [10] deals with Beta-2 adrenergic receptor (Homo sapiens, UniProt P07550). The data set can be described thus: Inhibition of human beta2 adrenoceptor […] incubated for 1 hr by TR-FRET assay. A general note: Time-resolved FRET reads energy transfer from a long-lived donor to a nearby acceptor.
The next data set concerns the target D(2) dopamine receptor (Homo sapiens, UniProt P14416). The data set can be described thus: Inhibition of human dopamine 2 receptor in presence of GTPgS.
A further data set concerns the target D(1A) dopamine receptor (Homo sapiens, UniProt P21728). The data set can be described thus: Inhibition of His6-tagged human dopamine 1 receptor […] incubated for 1 hr by TR-FRET assay.
In another data set the target is Histamine H1 receptor (Homo sapiens, UniProt P35367). Nature of the data set: Inhibition of human HRH1 by intracellular Ca2+ luminescence assay. In kind it is functional, cell-based.
Data set [11] has as its target Serotonin 3 (5-HT3) receptor. The data set can be described thus: Inhibition of human 5-HT3 by intracellular Ca2+ fluorescence assay. The format is cell-based.
Data set [12] addresses Muscarinic acetylcholine receptor M1 (Homo sapiens, UniProt P11229). The data set can be described thus: Inhibition of human M1 by intracellular Ca2+ fluorescence assay. In kind it is functional, cell-based.
In data set [13] the target is Muscarinic acetylcholine receptor M2 (Homo sapiens, UniProt P08172). Nature of the data set: Inhibition of human M2 by intracellular Ca2+ fluorescence assay. In kind it is functional, cell-based.
The next data set addresses Substance-P receptor (Homo sapiens, UniProt P25103). The data set can be described thus: Inhibition of human NK1 by intracellular Ca2+ luminescence assay. In kind it is functional, cell-based.
The target of data set [14] is Kappa-type opioid receptor (Homo sapiens, UniProt P41145). Nature of the data set: Inhibition of human OPRK1 in presence of GTPgS.
In a further data set the target is Mu-type opioid receptor (Homo sapiens, UniProt P35372). Nature of the data set: Inhibition of human OPRM1 in presence of GTPgS.
In a further data set the target is Vasopressin V1a receptor (Homo sapiens, UniProt P37288). Nature of the data set: Inhibition of human V1a by intracellular Ca2+ fluorescence assay. In kind it is functional, cell-based.
Data set [15] concerns the target Acetylcholine receptor subunit alpha (Homo sapiens, UniProt P02708). The data set can be described thus: Inhibition of human alpha 1 nAChR by intracellular Ca2+ fluorescence assay. In kind it is cell-based.
The target of data set [16] is Voltage-dependent L-type calcium channel subunit alpha-1C (Homo sapiens, UniProt Q13936). Nature of the data set: Inhibition of human CaV1.2 by intracellular Ca2+ fluorescence assay. In kind it is cell-based.
Data set [17] deals with Voltage-gated potassium channel, IKs; KCNQ1(Kv7.1)/KCNE1(MinK) (Homo sapiens, UniProt P15382+P51787). The data set can be described thus: Inhibition of human KCNQ1/KCNE1 by blocker ionworks assay. The format is protein-complex assay.
Data set [18] concerns the target Potassium voltage-gated channel subfamily A member 5 (Homo sapiens, UniProt P22460). Nature of the data set: Inhibition of human Kv1.5 by blocker ionworks assay.
The target of data set [19] is Sodium channel protein type 5 subunit alpha (Homo sapiens, UniProt Q14524). The data set can be described thus: Inhibition of human NaV1.5 by blocker ionworks assay.
In a further data set the target is Aurora kinase B (Homo sapiens, UniProt Q96GD4). The data set can be described thus: Inhibition of His6-tagged human Aurora B kinase at pH 7.4 incubated for 60 mins by Alexa Fluor 488 staining based fluorescence anisotropy analysis. A general note: Polarisation of emitted light reports the rotation of a fluorescent probe.
The target in data set [20] is Glycogen synthase kinase-3 beta (Homo sapiens, UniProt P49841). Nature of the data set: Inhibition of His6-tagged human GSK3beta at pH 7.4 incubated for 60 mins by Alexa Fluor 488 staining based fluorescence anisotropy analysis.
In data set [21] the target is Tyrosine-protein kinase Lck (Homo sapiens, UniProt P06239). Nature of the data set: Inhibition of His6-tagged human LCK at pH 7.4 incubated for 60 mins by Alexa Fluor 488 staining based fluorescence anisotropy analysis.
Data set [22] has as its target Phosphatidylinositol 4,5-bisphosphate 3-kinase catalytic subunit gamma isoform (Homo sapiens, UniProt P48736). Nature of the data set: Inhibition of His6-tagged human PI3K-gamma […] incubated for 1 hr by TR-FRET assay.
Data set [23] concerns the target Sodium-dependent dopamine transporter (Homo sapiens, UniProt Q01959). Nature of the data set: Inhibition of human DAT by scintillation proximity assay.
The target of data set [24] is Solute carrier organic anion transporter family member 1B1 (Homo sapiens, UniProt Q9Y6L6). The data set can be described thus: Inhibition of human OATP1B1 by FLINT imaging analysis.
Data set [25] is described as follows: Cmax in NOD:SCID mouse at 30 mg/kg, ip administered for 36 hrs by LC-MS/MS analysis. In kind it is ADME, organism-based. Particulars: in vivo.
The nature of data set [26]: AUC (0 to infinity) in NOD:SCID mouse at 30 mg/kg, ip administered for 36 hrs by LC-MS/MS analysis. In kind it is ADME, organism-based. Particulars: in vivo.
For a further data set, the system named is MV4-11. Nature of the data set: Antiproliferative activity against human MV4-11 cells assessed as inhibition of cell growth incubated for 72 hrs by CellTiter-Glo assay. In kind it is functional, cell-based. (In general: ATP-based viability assays read luminescence as a measure of living cells.)
Data set [27] deals with Serine/threonine-protein kinase Chk1 (Homo sapiens, UniProt O14757). Nature of the data set: Inhibition of CHEK1 (unknown origin) incubated for 1 hr by colloidal coomassie staining based LC-MS/MS analysis.
Data set [28] addresses Cyclin-dependent kinase 2 (Homo sapiens, UniProt P24941). The data set can be described thus: Inhibition of CDK2 (unknown origin) incubated for 1 hr by colloidal coomassie staining based LC-MS/MS analysis.
Data set [29] addresses Nucleoside diphosphate kinase A/B (Homo sapiens, UniProt P15531+P22392). The data set can be described thus: Inhibition of NME1/NME2 (unknown origin) incubated for 1 hr by colloidal coomassie staining based LC-MS/MS analysis. The format is protein assay.
The nature of a further data set: in vivo. Particulars: NOD:SCID, mouse, ip, 30 mg/kg.

Sequence of Serine/threonine-protein kinase Chk1 (O14757 whole entry): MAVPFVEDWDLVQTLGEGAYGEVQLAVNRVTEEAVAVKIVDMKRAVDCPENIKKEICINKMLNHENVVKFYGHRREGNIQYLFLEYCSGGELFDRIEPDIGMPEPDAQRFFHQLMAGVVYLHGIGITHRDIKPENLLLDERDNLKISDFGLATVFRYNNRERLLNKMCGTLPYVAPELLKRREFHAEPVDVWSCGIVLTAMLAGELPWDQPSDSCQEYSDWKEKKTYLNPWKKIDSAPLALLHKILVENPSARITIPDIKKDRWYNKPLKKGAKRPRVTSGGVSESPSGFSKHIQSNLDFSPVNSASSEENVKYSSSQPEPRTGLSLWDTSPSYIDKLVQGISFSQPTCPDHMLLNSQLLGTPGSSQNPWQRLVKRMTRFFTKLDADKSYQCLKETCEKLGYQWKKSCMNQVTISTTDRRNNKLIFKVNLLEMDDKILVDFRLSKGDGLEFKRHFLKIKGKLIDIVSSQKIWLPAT
Sequence of 5-hydroxytryptamine receptor 2C (P28335 whole entry): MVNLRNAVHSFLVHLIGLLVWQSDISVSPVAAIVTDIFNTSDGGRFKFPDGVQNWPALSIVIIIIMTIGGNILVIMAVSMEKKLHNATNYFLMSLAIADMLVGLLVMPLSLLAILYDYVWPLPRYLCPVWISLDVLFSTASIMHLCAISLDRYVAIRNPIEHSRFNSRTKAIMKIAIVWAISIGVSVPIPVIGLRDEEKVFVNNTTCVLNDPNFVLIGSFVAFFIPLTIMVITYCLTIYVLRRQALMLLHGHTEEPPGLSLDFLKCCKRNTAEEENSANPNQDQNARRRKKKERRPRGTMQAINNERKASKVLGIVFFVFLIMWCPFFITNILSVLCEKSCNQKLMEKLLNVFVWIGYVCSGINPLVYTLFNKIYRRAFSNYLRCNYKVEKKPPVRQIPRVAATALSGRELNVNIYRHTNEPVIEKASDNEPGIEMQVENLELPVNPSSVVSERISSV
Sequence of Sodium-dependent dopamine transporter (Q01959 whole entry): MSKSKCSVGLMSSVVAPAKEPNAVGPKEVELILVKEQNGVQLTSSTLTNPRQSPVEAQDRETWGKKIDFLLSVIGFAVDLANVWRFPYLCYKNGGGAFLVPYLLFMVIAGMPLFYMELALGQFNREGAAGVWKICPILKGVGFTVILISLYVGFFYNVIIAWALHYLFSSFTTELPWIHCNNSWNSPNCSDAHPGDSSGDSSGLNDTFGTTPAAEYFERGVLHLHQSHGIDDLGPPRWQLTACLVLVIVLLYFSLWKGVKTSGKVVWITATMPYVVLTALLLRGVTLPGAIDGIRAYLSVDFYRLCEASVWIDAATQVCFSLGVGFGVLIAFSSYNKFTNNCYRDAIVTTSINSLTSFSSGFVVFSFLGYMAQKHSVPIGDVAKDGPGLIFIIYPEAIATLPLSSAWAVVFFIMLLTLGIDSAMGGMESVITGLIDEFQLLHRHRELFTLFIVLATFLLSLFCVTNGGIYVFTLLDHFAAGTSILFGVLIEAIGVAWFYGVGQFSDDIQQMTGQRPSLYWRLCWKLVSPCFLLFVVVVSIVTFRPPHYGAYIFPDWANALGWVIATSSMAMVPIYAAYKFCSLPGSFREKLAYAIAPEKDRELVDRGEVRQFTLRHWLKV
Sequence of Solute carrier organic anion transporter family member 1B1 (Q9Y6L6 whole entry): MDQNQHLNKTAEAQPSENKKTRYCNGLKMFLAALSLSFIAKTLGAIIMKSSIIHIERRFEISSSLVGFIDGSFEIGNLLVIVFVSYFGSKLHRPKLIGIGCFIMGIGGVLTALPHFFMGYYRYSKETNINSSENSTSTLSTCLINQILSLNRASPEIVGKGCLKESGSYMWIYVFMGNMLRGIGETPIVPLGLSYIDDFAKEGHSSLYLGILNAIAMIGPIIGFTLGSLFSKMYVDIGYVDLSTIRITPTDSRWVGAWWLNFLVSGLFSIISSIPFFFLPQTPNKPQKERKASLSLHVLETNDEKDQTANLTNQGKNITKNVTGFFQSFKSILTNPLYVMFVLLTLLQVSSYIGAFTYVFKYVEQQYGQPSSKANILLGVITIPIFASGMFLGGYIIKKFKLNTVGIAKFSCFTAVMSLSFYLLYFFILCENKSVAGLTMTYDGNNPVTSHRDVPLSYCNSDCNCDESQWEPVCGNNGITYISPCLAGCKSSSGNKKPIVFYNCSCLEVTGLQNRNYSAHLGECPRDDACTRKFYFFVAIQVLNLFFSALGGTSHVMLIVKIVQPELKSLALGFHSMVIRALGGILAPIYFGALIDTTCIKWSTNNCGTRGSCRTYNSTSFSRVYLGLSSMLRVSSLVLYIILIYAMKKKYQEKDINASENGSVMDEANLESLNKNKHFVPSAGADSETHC
Sequence of Voltage-dependent L-type calcium channel subunit alpha-1C (Q13936 whole entry): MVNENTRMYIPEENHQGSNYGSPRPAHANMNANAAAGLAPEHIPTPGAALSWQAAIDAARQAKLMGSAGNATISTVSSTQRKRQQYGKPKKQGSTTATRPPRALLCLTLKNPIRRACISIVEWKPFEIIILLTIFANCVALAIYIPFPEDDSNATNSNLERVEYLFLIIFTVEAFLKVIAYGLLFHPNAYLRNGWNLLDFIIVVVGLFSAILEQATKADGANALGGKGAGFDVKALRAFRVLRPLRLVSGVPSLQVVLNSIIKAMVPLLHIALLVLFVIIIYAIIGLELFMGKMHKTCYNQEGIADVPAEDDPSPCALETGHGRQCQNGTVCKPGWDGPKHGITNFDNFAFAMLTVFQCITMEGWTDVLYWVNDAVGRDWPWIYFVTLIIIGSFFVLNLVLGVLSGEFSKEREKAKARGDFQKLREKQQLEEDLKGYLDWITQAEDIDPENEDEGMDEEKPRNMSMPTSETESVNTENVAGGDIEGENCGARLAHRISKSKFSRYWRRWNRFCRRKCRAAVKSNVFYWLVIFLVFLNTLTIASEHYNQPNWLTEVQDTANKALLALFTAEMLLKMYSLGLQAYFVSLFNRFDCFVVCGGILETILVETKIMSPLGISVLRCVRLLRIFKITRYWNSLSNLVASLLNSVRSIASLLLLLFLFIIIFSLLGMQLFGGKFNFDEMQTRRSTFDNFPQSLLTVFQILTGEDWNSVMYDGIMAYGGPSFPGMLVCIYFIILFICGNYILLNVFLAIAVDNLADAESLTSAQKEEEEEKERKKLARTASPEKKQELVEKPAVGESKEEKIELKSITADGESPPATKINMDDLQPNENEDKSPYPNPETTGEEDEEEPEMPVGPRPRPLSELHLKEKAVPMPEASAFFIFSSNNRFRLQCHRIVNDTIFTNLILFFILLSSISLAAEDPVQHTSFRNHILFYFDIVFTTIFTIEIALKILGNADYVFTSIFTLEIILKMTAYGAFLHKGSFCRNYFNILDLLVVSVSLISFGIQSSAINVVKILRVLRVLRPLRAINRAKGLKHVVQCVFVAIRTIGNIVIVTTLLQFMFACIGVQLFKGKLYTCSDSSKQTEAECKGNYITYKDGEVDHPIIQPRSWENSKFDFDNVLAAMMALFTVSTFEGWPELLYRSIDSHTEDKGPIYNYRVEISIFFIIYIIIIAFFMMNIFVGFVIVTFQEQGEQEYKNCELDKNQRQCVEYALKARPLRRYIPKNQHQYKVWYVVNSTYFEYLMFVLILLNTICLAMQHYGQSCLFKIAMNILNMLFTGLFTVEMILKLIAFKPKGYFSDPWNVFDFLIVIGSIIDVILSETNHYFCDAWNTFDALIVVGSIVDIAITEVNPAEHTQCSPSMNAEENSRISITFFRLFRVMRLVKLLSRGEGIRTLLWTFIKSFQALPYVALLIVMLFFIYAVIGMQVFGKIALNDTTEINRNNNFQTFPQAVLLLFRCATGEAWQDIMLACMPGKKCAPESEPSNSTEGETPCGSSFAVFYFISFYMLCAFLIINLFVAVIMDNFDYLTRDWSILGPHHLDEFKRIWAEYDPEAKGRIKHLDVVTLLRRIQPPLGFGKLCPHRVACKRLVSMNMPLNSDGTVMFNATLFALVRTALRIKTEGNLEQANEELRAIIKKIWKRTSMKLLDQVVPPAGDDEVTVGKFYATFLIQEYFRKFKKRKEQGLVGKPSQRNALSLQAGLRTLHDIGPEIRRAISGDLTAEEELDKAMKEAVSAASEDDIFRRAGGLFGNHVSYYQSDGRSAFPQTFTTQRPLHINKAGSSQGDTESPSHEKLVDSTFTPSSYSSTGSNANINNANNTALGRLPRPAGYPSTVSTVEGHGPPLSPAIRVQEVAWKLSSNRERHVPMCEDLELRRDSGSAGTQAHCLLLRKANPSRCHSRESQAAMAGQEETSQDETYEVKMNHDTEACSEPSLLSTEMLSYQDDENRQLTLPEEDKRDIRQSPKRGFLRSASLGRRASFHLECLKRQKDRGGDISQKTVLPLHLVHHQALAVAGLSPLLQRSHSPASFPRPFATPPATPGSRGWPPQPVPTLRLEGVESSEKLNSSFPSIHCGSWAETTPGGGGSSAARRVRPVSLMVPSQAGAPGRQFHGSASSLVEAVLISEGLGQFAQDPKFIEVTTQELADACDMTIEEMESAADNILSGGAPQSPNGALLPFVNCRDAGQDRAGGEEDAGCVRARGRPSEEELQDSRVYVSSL
Sequence of 5-hydroxytryptamine receptor 1B (P28222 whole entry): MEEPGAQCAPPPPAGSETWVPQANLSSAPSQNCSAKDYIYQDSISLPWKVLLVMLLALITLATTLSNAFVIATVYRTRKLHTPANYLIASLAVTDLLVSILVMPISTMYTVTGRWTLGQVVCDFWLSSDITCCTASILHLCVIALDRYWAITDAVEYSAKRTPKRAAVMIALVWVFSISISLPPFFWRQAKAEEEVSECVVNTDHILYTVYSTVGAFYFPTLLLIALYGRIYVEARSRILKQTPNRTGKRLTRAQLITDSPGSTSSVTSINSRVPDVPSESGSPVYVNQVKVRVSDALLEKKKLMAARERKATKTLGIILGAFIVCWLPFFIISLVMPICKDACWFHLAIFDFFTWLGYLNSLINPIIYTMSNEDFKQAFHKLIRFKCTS

As for `Cc1sc2c(c1C)C(c1ccc(Cl)cc1)=N[C@@H](CC(=O)OC(C)(C)C)c1nnc(C)n1-2`, in [1], the concentration peaked (Cmax) at 0.84 µM. In [2], the AUC was 2 µM·h. Moreover, in data set [3], the half-life was 2.3 h.
Regarding `O=C(Nc1c[nH]nc1-c1nc2ccc(CN3CCOCC3)cc2[nH]1)NC1CC1` [AT-9283], the IC50 in the data set with NOMO-1 is over 10 µM; in the data set with K562 it was 0.26 µM.
As for `CCNC(=O)C[C@@H]1N=C(c2ccc(Cl)cc2)c2cc(OC)ccc2-n2c(C)nnc21` [MOLIBRESIB], the IC50 in [4] is over 100 µM; in [5] it was over 25 µM; in data set [6], over 100 µM; in data set [7] it was over 40 µM; in [8], over 40 µM; in [9], over 40 µM. The IC50 in data set [10] was over 31.6 µM; on D(2) dopamine receptor, over 100 µM; at D(1A) dopamine receptor it was over 31.6 µM; on Histamine H1 receptor, over 40 µM; in data set [11], over 50 µM; in data set [12], over 15.1 µM. Further, the IC50 in data set [13] is over 15.8 µM; against Substance-P receptor it was over 40 µM; in [14], over 100 µM; on Mu-type opioid receptor, over 100 µM; against Vasopressin V1a receptor it was over 50 µM; in [15], 15.8 µM. The IC50 in data set [16] is over 15.8 µM; in [17], over 25 µM; in [18], over 50 µM; in data set [19], over 100 µM; against Aurora kinase B, over 25 µM; in data set [20], over 25 µM. Besides, the IC50 in data set [21] is over 25 µM; in data set [22] it was over 25 µM; in data set [23], 79 µM; in data set [24], 12.6 µM; with MV4-11 (Homo sapiens, MV4-11, 72 h) it was 0.102 µM; in data set [27], over 10 µM. In addition, the IC50 was at least 10 µM in data set [28] and over 10 µM in data set [29]. The Cmax in [25] was 21.9 µM. For the same molecule, in data set [26], the AUC stood at 40.3 µM·h. The IC100 in the data set on MV4-11 (time 72 hrs) was found to be 723 nM. This molecule also gave a half-life at 36 h in “in vivo” of 1.6 h.
